# Results taken from PubChem BioAssay (NCI).
#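 Values below derive from 48-hour exposures of cells grown in 96-well plates, with endpoints linearly interpolated between the two concentrations bracketing the appropriate inhibition level. At the TGI there is no net growth.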
# Assays:
# Test in all cases: NCI-60 cell line screen, 48 h
# [1] = system: OVCAR-5 ovarian
# [2] = system: SK-MEL-28 melanoma
# [3] = system: SNB-75 CNS
# [4] = system: SK-OV-3 ovarian
# [5] = system: UO-31 renal
# [6] = system: CCRF-CEM leukemia
# [7] = system: RXF 393 renal
# [8] = system: M14 melanoma
# [9] = system: SK-MEL-5 melanoma
# [10] = system: KM12 colon
# [11] = system: LXFL 529 NSCLC
# [12] = system: OVCAR-3 ovarian
# [13] = system: OVCAR-8 ovarian
# [14] = system: HCC-2998 colon
# [15] = system: COLO 205 colon
# [16] = system: EKVX NSCLC
# [17] = system: M19-MEL melanoma
# [18] = system: HT29 colon
# [19] = system: SN12C renal
# [20] = system: K-562 leukemia
# [21] = system: HCT-116 colon
# [22] = system: NCI-H522 lung
# [23] = system: DMS 273 small cell lung
# [24] = system: XF 498 CNS
# [25] = system: NCI-H23 lung
# [26] = system: DLD-1 colon
# [27] = system: NCI-H226 lung
# [28] = system: 786-0 renal
# [29] = system: SNB-19 CNS
# [30] = system: KM20L2 colon
# [31] = system: UACC-62 melanoma
# [32] = system: OVCAR-4 ovarian
# [33] = system: SF-295 CNS
# [34] = system: MALME-3M melanoma
# [35] = system: SK-MEL-2 melanoma
# [36] = system: SF-268 CNS
# [37] = system: IGROV1 ovarian
# [38] = system: HOP-92 NSCLC
# [39] = system: MOLT-4 leukemia
# [40] = system: NCI-H460 lung
# [41] = system: TK-10 renal
# [42] = system: SR leukemia
# [43] = system: LOX IMVI melanoma
# [44] = system: A549 NSCLC
# [45] = system: CAKI-1 renal
# [46] = system: SW-620 colon
# [47] = system: SNB-78 CNS
# [48] = system: SF-539 CNS
# [49] = system: U251 CNS
# [50] = system: HL-60(TB) leukemia
# [51] = system: HOP-62 NSCLC
# [52] = system: RPMI-8226 leukemia
# [53] = system: DMS 114 small cell lung
# [54] = system: UACC-257 melanoma
# [55] = system: ACHN renal
# [56] = system: HCT-15 colon
# [57] = system: A498 renal
smiles,measurement,setting,value
COc1ccc(/C=c2/sc3n(c2=O)NC2(CCCCC2)NN=3)cc1,TGI,[1],> 100 µM
same,TGI,[2],> 100 µM
same,TGI,[3],> 100 µM
same,TGI,[4],> 100 µM
same,TGI,[5],> 100 µM
same,TGI,[6],> 100 µM
same,TGI,[7],> 100 µM
same,TGI,[8],> 100 µM
same,TGI,[9],> 100 µM
same,TGI,[10],> 100 µM
same,TGI,[11],> 100 µM
same,TGI,[12],> 100 µM
same,TGI,[13],> 100 µM
same,TGI,[14],> 100 µM
same,TGI,[15],> 100 µM
same,TGI,[16],> 100 µM
same,TGI,[17],> 100 µM
same,TGI,[18],> 100 µM
same,TGI,[19],> 100 µM
same,TGI,[20],> 100 µM
same,TGI,[21],> 100 µM
same,TGI,[22],> 100 µM
same,TGI,[23],> 100 µM
same,TGI,[24],> 100 µM
same,TGI,[25],> 100 µM
same,TGI,[26],> 100 µM
same,TGI,[27],> 100 µM
same,TGI,[28],> 100 µM
same,TGI,[29],> 100 µM
same,TGI,[30],> 100 µM
same,TGI,[31],> 100 µM
same,TGI,[32],> 100 µM
same,TGI,[33],> 100 µM
same,TGI,[34],> 100 µM
same,TGI,[35],> 100 µM
same,TGI,[36],> 100 µM
same,TGI,[37],> 100 µM
same,TGI,[38],> 100 µM
same,TGI,[39],> 100 µM
same,TGI,[40],> 100 µM
same,TGI,[41],> 100 µM
same,TGI,[42],> 100 µM
same,TGI,[43],> 100 µM
same,TGI,[44],> 100 µM
same,TGI,[45],> 100 µM
same,TGI,[46],> 100 µM
same,TGI,[47],> 100 µM
same,TGI,[48],> 100 µM
CO/C(=N\N=Cc1ccccc1)c1ccncc1,TGI,[1],> 100 µM
same,TGI,[2],> 100 µM
same,TGI,[3],> 100 µM
same,TGI,[4],> 100 µM
same,TGI,[49],> 100 µM
same,TGI,[5],> 100 µM
same,TGI,[6],> 100 µM
same,TGI,[8],> 100 µM
same,TGI,[9],> 100 µM
same,TGI,[50],> 100 µM
same,TGI,[10],> 100 µM
same,TGI,[11],> 100 µM
same,TGI,[51],> 100 µM
same,TGI,[52],> 100 µM
same,TGI,[12],> 100 µM
same,TGI,[53],> 100 µM
same,TGI,[13],> 100 µM
same,TGI,[14],> 100 µM
same,TGI,[15],> 100 µM
same,TGI,[16],> 100 µM
same,TGI,[17],> 100 µM
same,TGI,[18],> 100 µM
same,TGI,[54],> 100 µM
same,TGI,[19],> 100 µM
same,TGI,[20],> 100 µM
same,TGI,[21],> 100 µM
same,TGI,[22],> 100 µM
same,TGI,[23],> 100 µM
same,TGI,[24],> 100 µM
same,TGI,[25],> 100 µM
same,TGI,[26],> 100 µM
same,TGI,[27],97.1 µM
same,TGI,[55],> 100 µM
same,TGI,[29],> 100 µM
same,TGI,[30],> 100 µM
same,TGI,[31],> 100 µM
same,TGI,[32],> 100 µM
same,TGI,[33],> 100 µM
same,TGI,[34],> 100 µM
same,TGI,[35],> 100 µM
same,TGI,[36],> 100 µM
same,TGI,[56],> 100 µM
same,TGI,[57],> 100 µM
same,TGI,[37],> 100 µM
same,TGI,[38],> 100 µM
same,TGI,[39],> 100 µM
same,TGI,[40],> 100 µM
same,TGI,[41],> 100 µM
same,TGI,[42],> 100 µM
same,TGI,[44],> 100 µM
same,TGI,[45],> 100 µM
same,TGI,[46],> 100 µM
same,TGI,[47],> 100 µM
same,TGI,[48],> 100 µM
